Like-named read-outs stand apart in the source and are kept apart here.
How the values were obtained:
HCT116 MTAP null cells = experiment: HCT116 proliferation assay, MTAP null cells (CellTiter-Glo, 6 days); type: cell-based; settings: 144 h, read-out: Protif_ HCT116-MTAP null IC50
How it was run: (§1)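 Seed cells in RPMI 1640 supplemented with 10% FBS and incubate overnight at 37° C under 5% CO2. Treat with serially diluted compound (threefold steps, 8 or 9 points, highest 1 or 10 µM) or DMSO alone, then quantify viability by luminescence.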

PRMT5/MEP50 = PRMT5/MEP50 (Homo sapiens, UniProt O14744); experiment: MTase-Glo methyl transferase assay, Method A (Histone H4 peptide, 1 µM MTA, 24 h pre-incubation); type: biochemical; set-up: made in house; settings: read-out: PRMT5 MTase Glo Ki (nM, Meth. A)
How it was run: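 Luminescent SAH detection (MTase-Glo) after a 2 h room-temperature methylation of 1 µM biotinylated H4 (1-21) peptide by 10 nM PRMT5/MEP50 with 5 µM SAM, in 50 mM Tris pH 8.0.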

HCT116 WT cells = experiment: HCT116 proliferation assay, WT cells (CellTiter-Glo, 6 days); type: cell-based; settings: Homo sapiens, HCT-116, 144 h, read-out: Prolif_HCT116-WT IC50
How it was run: as §1

PRMT5/MEP50, sequence (O14744 whole entry): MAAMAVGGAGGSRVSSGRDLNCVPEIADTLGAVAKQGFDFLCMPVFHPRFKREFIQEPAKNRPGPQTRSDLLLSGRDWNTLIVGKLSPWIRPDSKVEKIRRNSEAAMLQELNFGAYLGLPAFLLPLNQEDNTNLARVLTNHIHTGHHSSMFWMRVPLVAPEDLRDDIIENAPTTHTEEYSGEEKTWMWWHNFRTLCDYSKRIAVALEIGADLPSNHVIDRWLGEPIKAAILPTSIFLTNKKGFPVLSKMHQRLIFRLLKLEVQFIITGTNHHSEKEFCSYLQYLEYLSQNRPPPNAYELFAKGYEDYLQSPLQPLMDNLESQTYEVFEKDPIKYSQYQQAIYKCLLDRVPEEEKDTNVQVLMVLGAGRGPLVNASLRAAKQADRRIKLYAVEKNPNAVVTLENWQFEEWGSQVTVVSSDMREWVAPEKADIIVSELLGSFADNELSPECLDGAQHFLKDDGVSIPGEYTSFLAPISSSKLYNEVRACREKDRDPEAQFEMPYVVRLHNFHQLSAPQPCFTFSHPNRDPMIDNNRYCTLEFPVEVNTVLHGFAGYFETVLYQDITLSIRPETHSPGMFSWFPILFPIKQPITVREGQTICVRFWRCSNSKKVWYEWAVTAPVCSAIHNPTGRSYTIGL
PRMT5/MEP50, sequence (Q9BQA1 whole entry partner): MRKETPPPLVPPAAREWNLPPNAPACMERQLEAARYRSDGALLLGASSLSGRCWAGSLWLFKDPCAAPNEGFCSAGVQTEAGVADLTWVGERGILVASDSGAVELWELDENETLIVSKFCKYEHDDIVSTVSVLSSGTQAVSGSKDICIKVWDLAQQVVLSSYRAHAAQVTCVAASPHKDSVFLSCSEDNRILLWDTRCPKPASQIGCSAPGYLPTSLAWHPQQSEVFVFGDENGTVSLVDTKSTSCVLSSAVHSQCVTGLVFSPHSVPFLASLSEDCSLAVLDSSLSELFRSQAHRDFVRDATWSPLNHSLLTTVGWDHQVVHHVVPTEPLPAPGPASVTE

SMILES | IC50 (HCT116 MTAP null cells; HCT116-MTAP null) | Ki (PRMT5/MEP50) | IC50 (HCT116 WT cells) | IC50 (HCT116 MTAP null cells)
Cc1cc2cc(C(=O)N(Cc3ccc(C(F)(F)F)cn3)[C@H](C)c3ccc(Cl)cn3)ccc2nc1N [Example 428, 2-amino-N-((1R)-1-(5-chloro-2-pyridinyl)ethyl)-3-methyl-N-((5-(trifluoromethyl)-2-pyridinyl)methyl)-6-quinolinecarboxamide] | 188 nM | 0.08 nM | 3680 nM | 
Cc1cc2cc(C(=O)N(Cc3ccc(C(F)(F)F)cn3)C3(c4ncccn4)CC3)ccc2nc1N [Example 430, 2-amino-3-methyl-N-(1-(2-pyrimidinyl)cyclopropyl)-N-((5-(trifluoromethyl)-2-pyridinyl)methyl)-6-quinolinecarboxamide] | 506 nM | 0.42 nM | > 10000 nM | 
Cc1cc(N)nc2ccc(C(=O)N(Cc3ccc(C(F)(F)F)cn3)[C@H](C)c3ncccn3)cc12 [Example 432, 2-amino-4-methyl-N-((1R)-1-(2-pyrimidinyl)ethyl)-N-((5-(trifluoromethyl)-2-pyridinyl)methyl)-6-quinolinecarboxamide] | 24 nM | 0.57 nM | 110 nM | 
C[C@H](c1ncccn1)N(Cc1ccc(C(F)(F)F)cn1)C(=O)c1ccc2nc(N)c(Br)cc2c1 [Example 434, 2-amino-3-bromo-N-((1R)-1-(2-pyrimidinyl)ethyl)-N-((5-(trifluoromethyl)-2-pyridinyl)methyl)-6-quinolinecarboxamide] | 49 nM | < 0.1 nM | 2420 nM | 
C[C@H](c1nccs1)N(Cc1ccc(Br)nn1)C(=O)c1ccc2nc(N)c(Br)cc2c1 [Example 435, 2-amino-3-bromo-N-((6-bromo-3-pyridazinyl)methyl)-N-((1R)-1-(1,3-thiazol-2-yl)ethyl)-6-quinolinecarboxamide] | 66 nM | 0.08 nM | 3280 nM | 
Cc1cc2cc(C(=O)N(Cc3ccc(C(F)(F)F)cn3)CC(C)C)c(Cl)cc2nc1N [Example 436, 2-amino-7-chloro-3-methyl-N-(2-methylpropyl)-N-((5-(trifluoromethyl)-2-pyridinyl)methyl)-6-quinolinecarboxamide] | 198 nM | 0.14 nM | 3720 nM | 
Cc1cc2cc(C(=O)N(Cc3cncc(Cl)c3)Cc3ccc(C(F)(F)F)cn3)ccc2nc1N [Example 439, 2-amino-N-((5-chloro-3-pyridinyl)methyl)-3-methyl-N-((5-(trifluoromethyl)-2-pyridinyl)methyl)-6-quinolinecarboxamide] | 344 nM | 1.19 nM | > 10000 nM | 
[2H]C([2H])([2H])c1cc2cc(C(=O)N(Cc3ccc(C(F)(F)F)cn3)[C@H](C)c3ncccc3F)ccc2nc1N [Example 440, (R)-2-amino-N-(1-(3-fluoropyridin-2-yl)ethyl)-3-(methyl-d3)-N-((5-(trifluoromethyl)pyridin-2-yl)methyl)quinoline-6-carboxamide] |  | < 0.1 nM | 690 nM | 38 nM
[2H]C([2H])([2H])c1cc2cc(C(=O)N(Cc3ccc(C#N)cn3)[C@H](C)c3ncccn3)ccc2nc1N [Example 441, (R)-2-amino-N-((5-cyanopyridin-2-yl)methyl)-3-(methyl-d3)-N-(1-(pyrimidin-2-yl)ethyl)quinoline-6-carboxamide] | 107 nM | 0.06 nM | 2810 nM | 
Cc1cc2cc(C(=O)N(Cc3ccc(C(F)(F)F)cn3)CC(F)(F)F)ccc2nc1N [Example 442, 2-amino-3-methyl-N-(2,2,2-trifluoroethyl)-N-((5-(trifluoromethyl)-2-pyridinyl)methyl)-6-quinolinecarboxamide] | 969 nM | 6.87 nM | > 10000 nM | 
Cc1cc2cc(C(=O)N(Cc3ccc(C(F)(F)F)cn3)C[C@H](C)C(F)(F)F)ccc2nc1N [Example 458, 2-amino-3-methyl-N-((2S)-3,3,3-trifluoro-2-methylpropyl)-N-((5-(trifluoromethyl)-2-pyridinyl)methyl)-6-quinolinecarboxamide] |  | 0.84 nM | > 10000 nM | 590 nM
Cc1cc2cc(C(=O)N(Cc3ccc(C(F)(F)F)cn3)[C@@H]3COC[C@H]3O)ccc2nc1N [Example 505, 2-amino-N-((3R,4S)-4-hydroxytetrahydro-3-furanyl)-3-methyl-N-((5-(trifluoromethyl)-2-pyridinyl)methyl)-6-quinolinecarboxamide] | 765 nM | 2.51 nM | 10300 nM | 
COC[C@@H](C)N(Cc1ccc(C(F)(F)F)cn1)C(=O)c1ccc2nc(N)c(C)cc2c1 [Example 507, 2-amino-N-((2R)-1-methoxy-2-propanyl)-3-methyl-N-((5-(trifluoromethyl)-2-pyridinyl)methyl)-6-quinolinecarboxamide] | 46 nM | 0.15 nM | 913 nM | 
Cc1cc2cc(C(=O)N(Cc3ccc(C(F)F)cn3)[C@H](C)c3ncccn3)ccc2nc1N [Example 508, 2-amino-N-((5-(difluoromethyl)-2-pyridinyl)methyl)-3-methyl-N-((1R)-1-(2-pyrimidinyl)ethyl)-6-quinolinecarboxamide] | 56 nM | 0.73 nM | 1700 nM | 
Cc1cc2cc(C(=O)N(Cc3ccc(C(F)(F)F)nc3C)[C@H](C)c3ncccn3)ccc2nc1N [Example 509, 2-amino-3-methyl-N-((2-methyl-6-(trifluoromethyl)-3-pyridinyl)methyl)-N-((1R)-1-(2-pyrimidinyl)ethyl)-6-quinolinecarboxamide] | 137 nM | 0.13 nM | 4120 nM | 
Cc1cc2cc(C(=O)N(Cc3ccc(C(F)(F)F)nn3)[C@H](C)c3ncccc3F)ccc2nc1N [Example 510, 2-amino-N-((1R)-1-(3-fluoro-2-pyridinyl)ethyl)-3-methyl-N-((6-(trifluoromethyl)-3-pyridazinyl)methyl)-6-quinolinecarboxamide] | 70 nM | 0.32 nM | 1910 nM | 

Continued, in another order:

IC50 (HCT116 MTAP null cells; HCT116-MTAP null) | Ki (PRMT5/MEP50) | IC50 (HCT116 WT cells) | SMILES | IC50 (HCT116 MTAP null cells)
39 nM | 0.91 nM | 607 nM | Cc1cc2cc(C(=O)N(Cc3ccc(C(F)(F)F)cn3)[C@H](C)c3ncccn3)c(F)cc2nc1N [Example 429, 2-amino-7-fluoro-3-methyl-N-((1R)-1-(2-pyrimidinyl)ethyl)-N-((5-(trifluoromethyl)-2-pyridinyl)methyl)-6-quinolinecarboxamide] | 
173 nM | 0.07 nM | 3210 nM | Cc1cc2cc(C(=O)N(Cc3ccc(C#N)cn3)[C@H](C)c3ncc(F)cc3F)ccc2nc1N [Example 431, 2-amino-N-((5-cyano-2-pyridinyl)methyl)-N-((1R)-1-(3,5-difluoro-2-pyridinyl)ethyl)-3-methyl-6-quinolinecarboxamide] | 
821 nM | 1.26 nM | 1170 nM | C[C@H](c1ncccn1)N(Cc1ccc(C(F)(F)F)cn1)C(=O)c1ccc2nc(N)cc(Cl)c2c1 [Example 433, 2-amino-4-chloro-N-((1R)-1-(2-pyrimidinyl)ethyl)-N-((5-(trifluoromethyl)-2-pyridinyl)methyl)-6-quinolinecarboxamide] | 
76 nM | 0.29 nM | 1350 nM | Cc1cc2cc(C(=O)N(Cc3ccc(C(F)(F)F)cn3)[C@H](C)c3ncccn3)c(Cl)cc2nc1N [Example 437, 2-amino-7-chloro-3-methyl-N-((1R)-1-(2-pyrimidinyl)ethyl)-N-((5-(trifluoromethyl)-2-pyridinyl)methyl)-6-quinolinecarboxamide] | 
368 nM | 0.76 nM | 8790 nM | Cc1cc2cc(C(=O)N(Cc3ccc(C#N)cn3)[C@H](C)c3ncccn3)c(Cl)cc2nc1N [Example 438, 2-amino-7-chloro-N-((5-cyano-2-pyridinyl)methyl)-3-methyl-N-((1R)-1-(2-pyrimidinyl)ethyl)-6-quinolinecarboxamide] | 
109 nM | 0.06 nM | 3260 nM | Cc1cc2cc(C(=O)N(Cc3ccc(C#N)cn3)[C@H](C)c3ncccn3)ccc2nc1N [Example 502, (R)-2-amino-N-((5-cyanopyridin-2-yl)methyl)-3-methyl-N-(1-(pyrimidin-2-yl)ethyl)quinoline-6-carboxamide] | 
49 nM | 0.05 nM | 1360 nM | Cc1cc2cc(C(=O)N(Cc3ccc(Cl)cn3)[C@H](C)c3ncccn3)ccc2nc1N [Example 504, 2-amino-N-((5-chloro-2-pyridinyl)methyl)-3-methyl-N-((1R)-1-(2-pyrimidinyl)ethyl)-6-quinolinecarboxamide] | 
107 nM | 0.01 nM | 1160 nM | Cc1cc2c(CN(Cc3ccc(C(F)(F)F)cn3)C(=O)c3ccc4nc(N)c(C)cc4c3)ccnc2[nH]1 [Example 506, 2-amino-3-methyl-N-((2-methyl-1H-pyrrolo[2,3-b]pyridin-4-yl)methyl)-N-((5-(trifluoromethyl)-2-pyridinyl)methyl)-6-quinolinecarboxamide] | 
192 nM | 0.14 nM | 2340 nM | COCC(COC)N(Cc1ccc(C(F)(F)F)cn1)C(=O)c1ccc2nc(N)c(C)cc2c1 [Example 511, 2-amino-N-(1,3-dimethoxy-2-propanyl)-3-methyl-N-((5-(trifluoromethyl)-2-pyridinyl)methyl)-6-quinolinecarboxamide] | 
121 nM | 0.13 nM | 3100 nM | C[C@H](c1ncccn1)N(Cc1ccc(C(F)(F)F)cn1)C(=O)c1cnc2nc(N)c(Br)cc2c1 [Example 512, 7-amino-6-bromo-N-((1R)-1-(2-pyrimidinyl)ethyl)-N-((5-(trifluoromethyl)-2-pyridinyl)methyl)-1,8-naphthyridine-3-carboxamide] | 
